Data: patent publication US20200236969A1, “METHODS AND COMPOSITIONS FOR IMPROVING GROWTH AND PERFORMANCE” (priority 2017, published 2020)

Assays:
day-of-hatch turkeys = experiment: Second caged trial: 4-strain combination vs FM-B11 and BMD, body weight; type: in vivo, turkey
Excerpt: FIG. 5A and FIG. 5B show average body weights in grams (y-axis) for day-of-hatch turkeys treated with a 4-strain probiotic blend inoculation group, day-of-hatch turkeys treated with an existing commercial probiotic derived from chickens (FM-B11), and day-of-hatch turkeys treated with a low-dose antibiotic (bacitracin methylene disalicylate or BMD), as described in Example 2, compared to day-of-hatch turkeys treated with a saline negative control. FIG. 5A. Turkeys were weighed on day 0 (that is, day-of-hatch), day 3, day 6, and day 13. Error bars depict standard error of means. […] For each treatment group, eight replicate cages were used with 10 birds per cage (n=80 per treatment group).
A second trial was performed to repeat the 4-strain combination inoculation and compare it again with a negative saline control, an existing commercial probiotic derived from chickens (FM-B11), and a low-dose antibiotic (bacitracin methylene disalicylate or BMD) administered continuously at 50 g/ton in the feed. […] Results are shown in FIG. 5 and Table 5 and indicate that there is repeatability in the ability of this 4-strain combination to enhance turkey performance related to weight gain.

turkey poults = experiment: Pen trial of probiotic blends alone and with prebiotics: body weight, uniformity, feed conversion; type: in vivo
Procedure: Pen trial experiments were performed using the 4-strain probiotic blend and 10-strain (3 week) probiotic blend described in Example 2. The effect of each combination was assessed alone and in combination with one of two prebiotics, Lactose 1% in feed or 0.5 lbs SAFMANNAN per ton of feed (Phileo Lesaffre Animal Care, Marcq-En-Baroeul Cedex, France). The prebiotic was administered continuously in feed.
This Experiment started in December 2017 and lasted 15 weeks. Poults were housed in pens through 6 weeks of age then moved to a common area. They remained on experimental feed through 6 weeks; then were all given control feed. Probiotic inoculations were performed at day of hatch and 3 weeks of age.

Molecule	Average body weight Day 3 (day-of-hatch turkeys; day 3) [g]	Average body weight Day 6 (day-of-hatch turkeys; day 6) [g]	Average body weight Day 13 (day-of-hatch turkeys; day 13) [g]	Average body weight Day 0 (day-of-hatch turkeys; day-of-hatch (baseline)) [g]	Feed conversion ratio 0-2 weeks (turkey poults; 0-2 weeks of age)	Feed conversion ratio 0-6 weeks (turkey poults; 0-6 weeks of age)	Total body weight average Day 0 (turkey poults; Day 0 (baseline), pen trial) [grams]	Total body weight average Week 1 (turkey poults; Week 1, pen trial, probiotic at day of hatch and 3 weeks, prebiotic continuously in feed) [grams]	Total body weight average Week 2 (turkey poults; Week 2, pen trial) [grams]	Total body weight average Week 3 (turkey poults; Week 3, pen trial) [grams]	Coefficient of variation as a measure of bird uniformity Week 3 (turkey poults; Week 3 of age)	Total body weight average Week 6 (turkey poults; Week 6, pen trial) [grams]	Coefficient of variation as a measure of bird uniformity Week 6 (turkey poults; Week 6 of age)
bacitracin methylene disalicylate [BMD Antibiotic]	76.8	125.5	314.3	60.1	–	–	–	–	–	–	–	–	–
OC[C@H]1O[C@@H](O[C@H]2[C@H](O)[C@@H](O)C(O)O[C@@H]2CO)[C@H](O)[C@@H](O)[C@H]1O (stereo partly shown) [Lactose 1%, Lactose]	–	–	–	–	1.40	1.71	65.0	169.9	350.7	704.0	10.304	2471.0	9.3181
